Here are results for 38 compounds from patent US20260337211A1, “IP5 SUBSTITUTED COMPOUNDS” (SANIFIT THERAPEUTICS, S.A., priority 2022, published 2026).

Where a name gives a salt, the structure may show the parent alone.

This assay can be described thus: In vitro inhibition of calcium phosphate crystallization in human plasma (spectrophotometric, 550 nm). Type of assay: biochemical. As to conditions: 0-100 μM compound, 1.5 mM phosphate and 12.5 mM calcium, pH 7.4, 30 min at rt, slope between 6 and 24 min, read-out: Relative Potency (EC50). Here is the method:
The in vitro efficacy of the IP5 substituted compounds (e.g., Compounds 1 to 32) of the invention on the inhibition of calcium phosphate crystallization in human plasma samples was evaluated according to a spectrophotometric assay previously described in the art (Ferrer M, et al., Sci Rep 2017; 7:6858, doi:10.1038/s41598-017-07203-x).
A 96-well plate was employed. Plasma was spiked (1 volume of the IP5 substituted compounds of the invention per 19 volumes of plasma) with increasing concentrations of the derivatives in the range of 0-100 μM. Plasma was then centrifuged at 10,000 g at rt and subsequently mixed with a mixture of 5 mM hydrogen phosphate and 41.67 mM calcium to attain final concentrations of 1.5 mM phosphate and 12.5 mM calcium, respectively. All reagent solutions were filtered, and pH adjusted to 7.4.
Crystallization of calcium phosphate was monitored spectrophotometrically for 30 min at rt by measuring the increments in absorbance at 550 nm using the Biotek Powerwave XS Microplate spectrophotometer (BioTek Instruments, Inc., Winooski, VT, US). The plate was incubated at rt in an orbital shaker and absorbance measured every 3 min.
Plasma crystallization was assessed based on slope measurement in the linear range between 6 and 24 min from plots of increase in absorbance versus logarithm of time. The efficacy of different myo-inositol phosphates derivatives in preventing in vitro formation of calcium phosphate crystals was assessed in human plasma samples using the slopes obtained between 6- and 24-min. Inhibition of crystallization was measured by comparing the slopes of the control sample (blank plasma) with those of samples containing the inhibitor as shown below: […]

With `CC(C)CCCOC1C(OP(=O)(O)O)C(OP(=O)(O)O)C(OP(=O)(O)O)C(OP(=O)(O)O)C1OP(=O)(O)O` (racemic) [Compound 12, rac-4-O-(4-Methylpentyl)-myo-inositol-1,2,3,5,6-pentakis(phosphate) decasodium salt], the EC50 (in general, the concentration needed to bring the measured effect to its halfway point) fell in the range of 5 to 10 µM. For the compound `O=P(O)(O)O[C@@H]1[C@@H](OP(=O)(O)O)[C@H](OP(=O)(O)O)[C@H](OCCC2CCCC2)[C@H](OP(=O)(O)O)[C@H]1OP(=O)(O)O` [Compound 38, 2-O-(2-Cyclopentylethyl)-myo-inositol-1,3,4,5,6-pentakis(phosphate) decasodium salt], the EC50 lay in the range of 5 to 10 µM. Take `O=P(O)(O)OC1C(OCCCCCn2cccn2)C(OP(=O)(O)O)C(OP(=O)(O)O)C(OP(=O)(O)O)C1OP(=O)(O)O` (racemic) [Compound 18, rac-4-O-(5-(1H-Pyrazol-1-yl)pentyl)-myo-inositol-1,2,3,5,6-pentakis(phosphate) decasodium salt]: the concentration giving a half-maximal response (EC50) lay within 5 to 10 µM. Then “5-O-(9-Methoxypentyl)-myo-inositol-1,2,3,4,6-pentakis(phosphate) decasodium salt [Compound 44]”, with 5 to 10 µM; and “rac-4-O-(2-(4-Acetylpiperazin-1-yl)ethyl)-myo-inositol-1,2,3,5,6-pentakis(phosphate) decasodium salt [Compound 5]”, with ≤ 5 µM.

For the compound “rac-4-O-(5-Acetamidopentyl)-myo-inositol-1,2,3,5,6-pentakis(phosphate) decasodium salt [Compound 19]”, the EC50 lay in the range of 5 to 10 µM. Then “rac-1-O-Propyl-myo-inositol-2,3,4,5,6-pentakis(phosphate) decasodium salt [Compound 32]”, with ≤ 5 µM. The figure for “rac-4-O-Methyl-myo-inositol-1,2,3,5,6-pentakis(phosphate) decasodium salt [Compound 22]” is 5 to 10 µM; for `COCCCCCCCCCO[C@H]1[C@@H](OP(=O)(O)O)[C@H](OP(=O)(O)O)[C@@H](OP(=O)(O)O)[C@H](OP(=O)(O)O)[C@H]1OP(=O)(O)O` [Compound 8, 2-O-(9-Methoxynonyl)-myo-inositol-1,3,4,5,6-pentakis(phosphate) decasodium salt] it is 5 to 10 µM; for “rac-4-O-(10-Hydroxydecyl)-myo-inositol-1,2,3,5,6-pentakis(phosphate) decasodium salt [Compound 21]” it is > 10 µM. The figure for “rac-4-O-(5-Methoxypentyl)-myo-inositol-1,2,3,5,6-pentakis(phosphate) decasodium salt [Compound 3]” is ≤ 5 µM; for “rac-4-O-(6-(4-(carboxy)-1H-1,2,3-triazol-1-yl)hexyl)-myo-inositol-1,2,3,5,6-pentakis(phosphate) undecasodium salt [Compound 26]” it is > 10 µM. With “rac-4-O-Pentyl-myo-inositol-1,2,3,5,6-pentakis(phosphate) decasodium salt [Compound 1]”, the EC50 was ≤ 5 µM. The figure for “rac-4-O-(6-Aminohexyl)-myo-inositol-1,2,3,5,6-pentakis(phosphate) decasodium salt [Compound 28]” is ≤ 5 µM. The figure for `O=P(O)(O)OC1C(OCCCc2cccc(C(F)(F)F)c2)C(OP(=O)(O)O)C(OP(=O)(O)O)C(OP(=O)(O)O)C1OP(=O)(O)O` (racemic) [Compound 15, rac-4-O-(3-(3-(Trifluoromethyl)phenyl)propyl)-myo-inositol-1,2,3,5,6-pentakis(phosphate) decasodium salt] is 5 to 10 µM; for “5-O-Propyl-myo-inositol-1,2,3,4,6-pentakis(phosphate) decasodium salt [Compound 29]” it is 5 to 10 µM. Then “rac-4-O-(7-Methoxyheptyl)-myo-inositol-1,2,3,5,6-pentakis(phosphate) decasodium salt [Compound 23]”, with 5 to 10 µM; and `CCCOC1C(OP(=O)(O)O)C(OP(=O)(O)O)C(OP(=O)(O)O)C(OP(=O)(O)O)C1OP(=O)(O)O` (centres unmarked) [Compound 34, 2-O-Propyl-myo-inositol-1,3,4,5,6-pentakis(phosphate) decasodium salt], with 5 to 10 µM; and “rac-1-O-(2-Cyclopropylethyl)-myo-inositol-2,3,4,5,6-pentakis(phosphate) decasodium salt [Compound 48]”, with ≤ 5 µM. Consider `NC(=O)CCCCCOC1C(OP(=O)(O)O)C(OP(=O)(O)O)C(OP(=O)(O)O)C(OP(=O)(O)O)C1OP(=O)(O)O` (racemic) [Compound 33, rac-4-O-(6-Amino-6-oxohexyl)-myo-inositol-1,2,3,5,6-pentakis(phosphate) decasodium salt], for which the EC50 is ≤ 5 µM. Then “rac-1-O-((1-(2-(Metoxycarbonyl)ethyl)-1H-1,2,3-triazol-4-yl)methyl)-myo-inositol-2,3,4,5,6-pentakis(phosphate) undecasodium salt [Compound 53]”, with 5 to 10 µM; and “2-O-(19-methoxynonadecyl)-myo-inositol-1,3,4,5,6-pentakis(phosphate) decasodium salt [Compound 9]”, with > 10 µM.

Take `O=C(O)CCc1cn(CCCOC2C(OP(=O)(O)O)C(OP(=O)(O)O)C(OP(=O)(O)O)C(OP(=O)(O)O)C2OP(=O)(O)O)nn1` (racemic) [Compound 25, rac-4-O-(3-(4-(2-carboxyethyl)-1H-1,2,3-triazol-1-yl)propyl)-myo-inositol-1,2,3,5,6-pentakis(phosphate) undecasodium salt]: the EC50 is > 10 µM.

On to “rac-1-O-(5-Acetamidopentyl)-myo-inositol-2,3,4,5,6-pentakis(phosphate) decasodium salt [Compound 49]”, for which the 50% effective concentration (EC50) was 5 to 10 µM. Then “2-O-Propargyl-myo-inositol-1,3,4,5,6-pentakis(phosphate) decasodium salt [Compound 43]”, with 5 to 10 µM; and `NCCCOC1C(OP(=O)(O)O)C(OP(=O)(O)O)C(OP(=O)(O)O)C(OP(=O)(O)O)C1OP(=O)(O)O` (racemic) [Compound 27, rac-4-O-(3-Aminopropyl)-myo-inositol-1,2,3,5,6-pentakis(phosphate) decasodium salt], with ≤ 5 µM; and `O=P(O)(O)OC1C(OCCC2CCCC2)C(OP(=O)(O)O)C(OP(=O)(O)O)C(OP(=O)(O)O)C1OP(=O)(O)O` (racemic) [Compound 51, rac-1-O-(2-Cyclopentylethyl)-myo-inositol-2,3,4,5,6-pentakis(phosphate) decasodium salt], with ≤ 5 µM. For the compound “5-O-(9-Methoxynonyl)-myo-inositol-1,2,3,4,6-pentakis(phosphate) decasodium salt [Compound 31]”, the EC50 is 5 to 10 µM.

`O=P(O)(O)OC1C(OCCC2CC2)C(OP(=O)(O)O)C(OP(=O)(O)O)C(OP(=O)(O)O)C1OP(=O)(O)O` (racemic) [Compound 17, rac-4-O-(2-Cyclopropylethyl)-myo-inositol-1,2,3,5,6-pentakis(phosphate) decasodium salt]: the EC50 was in the range of 5 to 10 µM. Then “5-O-(6,6,6-Trifluorohexyl)-myo-inositol-1,2,3,4,6-pentakis(phosphate) decasodium salt [Compound 45]”, with 5 to 10 µM; and “5-O-(2-Cyclopropylethyl)-myo-inositol-1,2,3,4,6-pentakis(phosphate) decasodium salt [Compound 30]”, with 5 to 10 µM; and “rac-1-O-(5-(4-(Methoxymethyl)-1H-1,2,3-triazol-1-yl)pentyl)-myo-inositol-2,3,4,5,6-pentakis(phosphate) decasodium salt [Compound 52]”, with 5 to 10 µM.

Take “2-O-(5-Methoxypentyl)-myo-inositol-1,3,4,5,6-pentakis(phosphate) decasodium salt [Compound 7]”: the concentration for a half-maximal effect (EC50) was 5 to 10 µM. With `Cc1ccc(CCCOC2C(OP(=O)(O)O)C(OP(=O)(O)O)C(OP(=O)(O)O)C(OP(=O)(O)O)C2OP(=O)(O)O)cc1` (racemic) [Compound 11, rac-4-O-(3-(p-Tolyl)propyl)-myo-inositol-1,2,3,5,6-pentakis(phosphate) decasodium salt], the half-maximal effective concentration (EC50) was 5 to 10 µM.

For the compound “rac-4-O-Propyl-myo-inositol-1,2,3,5,6-pentakis(phosphate) decasodium salt [Compound 24]”, the concentration giving a half-maximal response (EC50) is ≤ 5 µM. The figure for “rac-4-O-(5-Hydroxypentyl)-myo-inositol-1,2,3,5,6-pentakis(phosphate) decasodium salt [Compound 2]” is ≤ 5 µM. The figure for “rac-4-O-(6,6,6-Trifluorohexyl)-myo-inositol-1,2,3,5,6-pentakis(phosphate) decasodium salt [Compound 13]” is ≤ 5 µM. As to `COCc1cn(CCCCCOC2C(OP(=O)(O)O)C(OP(=O)(O)O)C(OP(=O)(O)O)C(OP(=O)(O)O)C2OP(=O)(O)O)nn1` (centres unmarked) [Compound 46, 5-O-(5-(4-(Methoxymethyl)-1H-1,2,3-triazol-1-yl)pentyl)-myo-inositol-1,2,3,4,6-pentakis(phosphate) decasodium salt], the EC50 was > 10 µM.
